Laboratory results from US20090192167A1 (priority 2005, published 2009).
Like-named read-outs stand apart in the source and are kept apart here.

Assays:
Chilo suppressalis [1] = conditions: in vivo
Pyricularia oryzae [2] = type: in vivo; conditions: inoculated 1 day after spraying, lesions counted after 7 days
Pyricularia oryzae [3] = type: in vivo; conditions: granule, nursery box, inoculated 30 days after treatment, lesions examined after 7 days
Chilo suppressalis [4] = conditions: in vivo; remark: listed apart in the source
Chilo suppressalis [5] = conditions: in vivo; remark: listed apart in the source
Pyricularia oryzae [6] = type: in vivo; conditions: granule, submerged application, inoculated 14 days after treatment, lesions examined after 7 days
[7] = amount of treated chemical 100 gai/box
[8] = amount of treated chemical 150 gai/box
[9] = amount of treated chemical 60 gai/box

| SMILES | Mortality (%) (Chilo suppressalis [1]) | Pyricularia oryzae Control value (Pyricularia oryzae [2]; [7]) | Mortality (%) (Chilo suppressalis [4]) | Mortality (%) (Chilo suppressalis [5]) | other results |
| --- | --- | --- | --- | --- | --- |
| Cc1cc(C(F)(C(F)(F)F)C(F)(F)F)cc(C)c1NC(=O)c1cccc(N(C)C(=O)c2ccccc2)c1F [Compound 1208] | 95 | 5 | – | – | – |
| CC(C)OC(=O)NC(CNC(=O)c1cc2ccccc2o1)C(C)C (stereo not shown) [Compound 3005] | 0 | – | 0 | 0 | Pyricularia oryzae Control value (Pyricularia oryzae [3]; 15 gai/box): 100; Pyricularia oryzae Control value (Pyricularia oryzae [6]; 450 (gai/box)): 100; Pyricularia oryzae Control value (Pyricularia oryzae [2]; [8]): 100 |
| Cc1cc(C(F)(C(F)(F)F)C(F)(F)F)cc(C)c1NC(=O)c1cccc(N(C)C(=O)c2cccnc2F)c1F [Compound 1246] | – | – | – | – | Pyricularia oryzae Control value (Pyricularia oryzae [3]; 5 gai/box): 0; Pyricularia oryzae Control value (Pyricularia oryzae [6]; 300 (gai/box)): 4 |
| Cc1cc(C(F)(C(F)(F)F)C(F)(F)F)cc(C)c1NC(=O)c1cccc(N(C)C(=O)c2ccc(C#N)cc2)c1F [Compound 1217] | – | – | 95 | 95 | Pyricularia oryzae Control value (Pyricularia oryzae [3]; 5 gai/box): 0; Pyricularia oryzae Control value (Pyricularia oryzae [6]; 300 (gai/box)): 5 |
| Cc1cc(C(F)(C(F)(F)F)C(F)(F)F)cc(C)c1NC(=O)c1cccc(NC(=O)c2cccnc2Cl)c1F [Compound 639] | – | – | – | – | Pyricularia oryzae Control value (Pyricularia oryzae [3]; 5 gai/box): 5; Pyricularia oryzae Control value (Pyricularia oryzae [6]; 300 (gai/box)): 0 |
| O=C(Nc1cccc(C(=O)Nc2c(Br)cc(C(F)(C(F)(F)F)C(F)(F)F)cc2SC(F)(F)F)c1)c1ccccc1 [Compound 210] | 95 | 0 | – | – | – |
| Cc1cc(C(F)(C(F)(F)F)C(F)(F)F)cc(C)c1NC(=O)c1cccc(NC(=O)OC(CF)CF)c1 [Compound 3001] | 95 | 0 | – | – | – |
| Cc1cc(C(F)(C(F)(F)F)C(F)(F)F)cc(C)c1NC(=O)c1cccc(NC(=O)OCC(F)(F)F)c1F [Compound 3000] | 90 | 3 | – | – | – |
| Cc1ccc(C(=O)NCC(NC(=O)OC(C)C)C(C)C)cc1 (stereo not shown) [Compound 3003] | 0 | – | 0 | 0 | Pyricularia oryzae Control value (Pyricularia oryzae [3]; 15 gai/box): 100; Pyricularia oryzae Control value (Pyricularia oryzae [6]; 450 (gai/box)): 100; Pyricularia oryzae Control value (Pyricularia oryzae [2]; [8]): 100 |
| CC(C)C(CNC(=O)c1cc2ccccc2o1)NC(=O)OCC(F)(F)F (stereo not shown) [Compound 3008] | 0 | – | 0 | 0 | Pyricularia oryzae Control value (Pyricularia oryzae [3]; 7.5 gai/box): 100; Pyricularia oryzae Control value (Pyricularia oryzae [6]; 225 (gai/box)): 100; Pyricularia oryzae Control value (Pyricularia oryzae [2]; [9]): 100 |
| Cc1cc(C(F)(C(F)(F)F)C(F)(F)F)cc(C)c1NC(=O)c1cccc(NC(=O)c2ccccc2)c1F [Compound 601, N-(2,6-dimethyl-4-heptafluoroisopropyl)phenyl 3-(benzoylamino)-2-fluorobenzamide] | 95 | 2 | – | – | – |
| Cc1cc(C(F)(C(F)(F)F)C(F)(F)F)cc(C)c1NC(=O)c1cccc(NC(=O)OCCCl)c1F [Compound 3002] | 90 | 3 | – | – | – |
| Cc1ccc(C(=O)NCC(NC(=O)OCC(F)(F)F)C(C)(C)C)cc1 (stereo not shown) [Compound 3007] | 5 | – | – | – | Pyricularia oryzae Control value (Pyricularia oryzae [3]; 7.5 gai/box): 100; Pyricularia oryzae Control value (Pyricularia oryzae [6]; 225 (gai/box)): 100; Pyricularia oryzae Control value (Pyricularia oryzae [2]; [9]): 100 |
| Cc1ccc(C(=O)NCC(NC(=O)OC(C)C)C(C)(C)C)cc1 (stereo not shown) [Compound 3004] | 0 | – | 0 | 0 | Pyricularia oryzae Control value (Pyricularia oryzae [3]; 15 gai/box): 100; Pyricularia oryzae Control value (Pyricularia oryzae [6]; 450 (gai/box)): 100; Pyricularia oryzae Control value (Pyricularia oryzae [2]; [8]): 100 |
| Cc1ccc(C(=O)NCC(NC(=O)OCC(F)(F)F)C(C)C)cc1 (stereo not shown) [Compound 3006] | 0 | – | 0 | 0 | Pyricularia oryzae Control value (Pyricularia oryzae [3]; 7.5 gai/box): 100; Pyricularia oryzae Control value (Pyricularia oryzae [6]; 225 (gai/box)): 100; Pyricularia oryzae Control value (Pyricularia oryzae [2]; [9]): 100 |
| Cc1cc(C(F)(C(F)(F)F)C(F)(F)F)cc(C)c1NC(=O)c1cccc(NC(=O)c2cccnc2Cl)c1 [Compound 106, N-(2,6-dimethyl-4-heptafluoroisopropyl)phenyl 3-[(2-chloropyridine-3-yl)carbonylamino]benzamide] | – | – | – | – | Pyricularia oryzae Control value (Pyricularia oryzae [3]; 5 gai/box): 4; Pyricularia oryzae Control value (Pyricularia oryzae [6]; 300 (gai/box)): 3 |
| Cc1cc(C(F)(C(F)(F)F)C(F)(F)F)cc(C)c1NC(=O)c1cccc(N(C)C(=O)c2cccnc2Cl)c1F [Compound 1245] | – | – | – | – | Pyricularia oryzae Control value (Pyricularia oryzae [3]; 5 gai/box): 5; Pyricularia oryzae Control value (Pyricularia oryzae [6]; 300 (gai/box)): 0 |
